These results are taken from paper PMC5862567, “Validating and enabling phosphoglycerate dehydrogenase (PHGDH) as a target for fragment-based drug discovery in PHGDH-amplified breast cancer” (Oncotarget, 2016).

The target in experiment [1] is T1, sPHGDH (aa 3-314), cofactor-binding pocket (Homo sapiens, UniProt O43175).
T1 construct: the truncated version (sPHGDH, aa 3-314); His6 (N, cleaved yes); TEV protease recognition site (N, cleaved yes); made in house; host or cells: E. coli Rosetta (DE3)
T1 sequence (O43175 3-314): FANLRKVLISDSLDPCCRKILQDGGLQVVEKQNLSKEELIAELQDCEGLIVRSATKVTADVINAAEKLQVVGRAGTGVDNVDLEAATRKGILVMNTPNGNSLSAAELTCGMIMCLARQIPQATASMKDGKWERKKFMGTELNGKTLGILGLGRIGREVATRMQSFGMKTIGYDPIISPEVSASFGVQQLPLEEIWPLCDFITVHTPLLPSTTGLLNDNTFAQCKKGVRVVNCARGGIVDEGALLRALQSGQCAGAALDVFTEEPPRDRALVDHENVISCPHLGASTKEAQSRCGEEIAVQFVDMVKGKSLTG
The experiment in a line: ITC competition experiment (NADH titrated into sPHGDH premixed with fragment). Conditions: for Kd / ΔH / ΔS: competition ITC, 5 mM fragment, 25 °C; for Kd: 0.5 mM NADH into 0.05 mM sPHGDH, 5 % DMSO; for LE: ΔG per number of non-hydrogen atoms (= #).
Procedure: To remove residual bound cofactor, sPHGDH was incubated with 0.5 equivalents of activated charcoal for 30 minutes at room temperature prior to performing the ITC experiments. […] 1 x 0.5 μL, followed by 17 x 2 μL injections of ligands into protein with 120 seconds spacing between the injections was conducted. Titration of 0.5 mM NADH in 5 % DMSO into 0.05 mM sPHGDH in 5 % DMSO was used as reference.

For experiment [2], the target named is T2, recombinant full-length PHGDH (Homo sapiens, UniProt O43175).
T2 construct: encoding for the full-length enzyme (aa 1-533); His6 (N, cleaved yes); TEV protease recognition site (N, cleaved yes); made in house; host or cells: E. coli Rosetta (DE3)
T2 sequence (O43175 1-533): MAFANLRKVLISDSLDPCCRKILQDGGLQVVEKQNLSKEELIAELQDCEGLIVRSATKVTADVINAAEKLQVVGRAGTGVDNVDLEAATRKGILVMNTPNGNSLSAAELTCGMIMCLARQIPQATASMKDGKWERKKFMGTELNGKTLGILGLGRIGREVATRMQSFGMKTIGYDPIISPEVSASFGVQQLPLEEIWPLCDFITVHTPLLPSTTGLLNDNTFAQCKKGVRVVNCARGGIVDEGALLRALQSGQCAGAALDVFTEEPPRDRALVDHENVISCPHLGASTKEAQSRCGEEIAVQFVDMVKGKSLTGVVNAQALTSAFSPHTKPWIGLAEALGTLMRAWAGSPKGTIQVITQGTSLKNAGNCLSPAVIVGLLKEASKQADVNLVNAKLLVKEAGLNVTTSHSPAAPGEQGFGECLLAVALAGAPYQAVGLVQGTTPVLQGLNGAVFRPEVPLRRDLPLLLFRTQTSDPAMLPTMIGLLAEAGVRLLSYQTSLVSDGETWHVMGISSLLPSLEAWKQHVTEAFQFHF
The experiment in a line: Differential scanning fluorimetry (DSF) thermal shift assay, fragment screen. It counts as binding. Also on record: key to Z score: Z-score of Tm shift, in standard deviations from the screen mean. Conditions: for Z score: average Z score of primary fragment screens by DSF; for ΔTm at 1000 µM: fragment 1 mM, primary DSF screen, 15 μM PHGDH, read-out: ΔTm (screening hit); for ΔTm (repurchased fragment): DSF. As for the experimental part:
In this study a ‘rule-of-three’ [18] compliant library of 600 fragments (CRT Cambridge, UK) was screened against recombinant full-length PHGDH using a differential scanning fluorimetry (DSF) assay. PHGDH has an average melting temperature (Tm) of 54 °C. Fragments were screened at 1 mM in the presence of 1 % DMSO. 1 mM NADH was used as positive control, and gave an increased Tm of 61 °C, corresponding to a Δ Tm of 7 °C (Supplementary Figure S2). Hits were determined based on an average Z-score ≥ 1, i.e. to a change in Tm of PHGDH equal to or greater than one standard deviation of the mean (Supplementary Table S1). Applying this threshold, 42 compounds were classified as hits, which corresponds to a hit rate of […]. A subset of 15 fragments was commercially available and were repurchased and further evaluated in an ITC competition experiment (Figure 3, Table 1, Supplementary Figure S3). The ITC competition experiments confirmed binding of 13 fragments to the cofactor-binding pocket of PHGDH. […] In order to further characterise the hits, and to help us prioritise their use as seeds for further hit-expansion studies, we undertook a crystallographic investigation of their respective binding modes.
The DSF assay was performed in 384-well plates (Corning, black) in 25 mM HEPES, pH 7.5, 100 mM NaCl, 0.5 mM TCEP, 10 x SYPRO® Orange (Thermo Fisher Scientific), in a final volume of 15 μL containing 15 μM PHGDH and […]. The fragments were added from a 100 mM master stock in 100 % DMSO to a final concentration of 1 mM using an ECHO® acoustic liquid handler (Labcyte). Reference wells contained DMSO only and 1 mM NADH was used as positive control.
The heat denaturation profile of PHGDH was followed using the fluorescence of Sypro Orange with excitation and emission wavelengths of 470 and 570 nm, respectively. Analysis was performed in GraphPad Prism using the Boltzmann equation to determine the melting temperature, Tm, which is the inflection point of the sigmoidal denaturation curve.
(Differential scanning fluorimetry follows unfolding on heating by fluorescence.)

“Also recorded” adds a separate entry of the source. Like-named read-outs stand apart in the source and are kept apart here.

Regarding `Oc1noc2cc(Cl)ccc12` [Fragment 17, 6-chloro-3-hydroxybenzisoxazole], the Kd in experiment [1] (read-out: Kd) was 2.4 ± 0.7 mM. Moreover, in experiment [1], the ΔH is on record as -1517.3 kJ/mol, the ΔS was -5.14 kJ (mol x K) and the LE was 0.32 kcal/(mol·heavy atom).
Take `Oc1noc2ccc(Br)cc12` [Fragment 20]: the Kd entry in experiment [1] is “no binding affinity was detected; also recorded: Compound precipitated”.
On to `Cn1ccc2cc(N)ccc21` [Fragment 9, 5-Amino-1-methyl-1H-indole], for which, in experiment [2], the Z score is on record as 1.8 ± 1.4, the ΔTm at 1000 µM was determined as 2 ± 1.2 °C and the “ΔTm (repurchased fragment)” value was 1.2 ± 0.4 °C. Besides, the Kd in experiment [1] (read-out: Kd) was 11.1 ± 5 mM. In experiment [1], the ΔH was -102.0 kJ/mol, the ΔS was -0.38 kJ (mol x K) and the LE is 0.24 kcal/(mol·heavy atom).
For the molecule `Nc1cccc(-c2cnco2)c1` [Fragment 10, 3-(1,3-oxazol-5-yl)aniline], in experiment [2], the Z score is on record as 1.0 ± 0.9, the ΔTm at 1000 µM turned out to be 1.4 ± 0.6 °C and the “ΔTm (repurchased fragment)” value was -0.8 ± 0.3 °C. Moreover, in experiment [1], the ΔH was -260.8 kJ/mol and the ΔS was -0.91 kJ (mol x K).
With `COc1ccc(NC(C)=O)cc1Cl` [Fragment 15, N-(3-chloro-4-methoxyphenyl) acetamide], in experiment [2], the Z score came out at 1.2 ± 0.3, the thermal shift (ΔTm) at 1000 µM was found to be 1.3 ± 0.2 °C and the “ΔTm (repurchased fragment)” value is -0.2 ± 0.4 °C. Moreover, the Kd in experiment [1] (read-out: Kd) amounted to 2.8 ± 1.6 mM. Also, in experiment [1], the ΔH was -1753.2 kJ/mol, the ΔS is -5.93 kJ (mol x K) and the LE was 0.27 kcal/(mol·heavy atom).
In the case of `Cc1cccc2cc[nH]c12` [Fragment 6, 7-Methyl-1H-indole], in experiment [2], the Z score was found to be 1.1 ± 0.7, the ΔTm at 1000 µM was found to be 2.4 ± 1.2 °C and the “ΔTm (repurchased fragment)” value turned out to be 0.2 ± 0.2 °C. The Kd in experiment [1] (read-out: Kd) was 1.5 ± 0.2 mM. Besides, in experiment [1], the ΔH is -1593.9 kJ/mol, the ΔS is -5.40 kJ (mol x K) and the LE was 0.38 kcal/(mol·heavy atom).
For the molecule `Cc1cccc2c(O)noc12` [Fragment 18], in experiment [1] (read-out: Kd), the Kd was 15.9 ± 7.4 mM. In experiment [1], the ΔH is given as -194.3 kJ/mol, the ΔS is -0.67 kJ (mol x K) and the LE is 0.22 kcal/(mol·heavy atom). For the same molecule, the “fold reduced affinity compared to fragment 16” value in experiment [1] (competitive ITC Kd, versus 16) stood at 2.5 fold.
`Cc1cncc(Oc2cccc(N)c2)n1` [Fragment 11, 3-(6-Methylpyrazin-2-yl)oxyaniline]: in experiment [2], the Z score is listed as 1.1 ± 0.6, the ΔTm at 1000 µM turned out to be 1.7 ± 0.7 °C and the “ΔTm (repurchased fragment)” value is -0.6 ± 0.6 °C. Further, the Kd in experiment [1] (read-out: Kd) is 11.5 ± 8.4 mM. In experiment [1], the ΔH is -11.5 kJ/mol, the ΔS is -0.08 kJ (mol x K) and the LE was 0.18 kcal/(mol·heavy atom).
Take `NC(=O)c1ccc(F)c(Cl)c1` [Fragment 5, 3-Chloro-4-fluorobenzamide]: in experiment [2], the Z score stood at 1.0 ± 0.8, the ΔTm at 1000 µM turned out to be 2.3 ± 1 °C and the “ΔTm (repurchased fragment)” value was -0.1 ± 0.2 °C. Moreover, the Kd in experiment [1] (read-out: Kd) is 1.6 ± 0.2 mM. Also, in experiment [1], the ΔH is reported as -5.4 kJ/mol, the ΔS is -0.07 kJ (mol x K) and the LE was 0.35 kcal/(mol·heavy atom).
As for `Cn1nc(-c2ccccc2)cc1N` [Fragment 3, 1-Methyl-3-phenyl-1H-pyrazol-5-amine], in experiment [2], the Z score is on record as 1.0 ± 0.4, the ΔTm at 1000 µM was 2.2 ± 0.8 °C and the “ΔTm (repurchased fragment)” value is -0.2 ± 0.2 °C. Besides, the Kd in experiment [1] (read-out: Kd) is 5.8 ± 2 mM. In experiment [1], the ΔH was -467.2 kJ/mol, the ΔS was -1.61 kJ (mol x K) and the LE is 0.23 kcal/(mol·heavy atom).
For `Cc1cncc(Oc2cccc(CO)c2)n1` [Fragment 7, [3-(6-Methylpyrazin-2-yl)oxyphenyl] methanol], in experiment [2], the Z score was determined as 1.2 ± 0.9, the ΔTm at 1000 µM stood at 1.8 ± 1.7 °C and the “ΔTm (repurchased fragment)” value was -0.3 ± 0.2 °C. Besides, the Kd in experiment [1] (read-out: Kd) stood at 16.6 ± 10.4 mM. In experiment [1], the ΔH worked out at 15.8 kJ/mol, the ΔS was 0.02 kJ (mol x K) and the LE was 0.15 kcal/(mol·heavy atom).
As to `NC(=O)C1=CN([C@@H]2O[C@H](COP(=O)(O)OP(=O)(O)OC[C@H]3O[C@@H](n4cnc5c(N)ncnc54)[C@H](O)[C@@H]3O)[C@@H](O)[C@H]2O)C=CC1` [NADH, reference compound], the ΔTm in experiment [2] (1 mM NADH positive control) was determined as 7 °C. The “Tm of PHGDH in presence of compound” value in experiment [2] (1 mM NADH positive control, PHGDH alone Tm 54 °C) worked out at 61 °C.
With `CCc1nc(C)c[nH]1` [Fragment 2, 2-Ethyl-4-methylimidazole], in experiment [2], the Z score turned out to be 1.0 ± 1.0, the ΔTm at 1000 µM is 2 ± 2.1 °C and the “ΔTm (repurchased fragment)” value is -0.1 ± 0.2 °C. For the same molecule, the Kd result in experiment [1] is on record as “No competition”.
Consider `Oc1noc2ccccc12` [Fragment 16, 3-Hydroxy benzisoxazole], for which, in experiment [2], the Z score stood at 1.4 ± 0.7, the ΔTm at 1000 µM is 2.5 ± 0.7 °C and the “ΔTm (repurchased fragment)” value was 0.2 ± 0.3 °C. Also, in experiment [1] (read-out: Kd), the Kd stood at 6.5 ± 4.7 mM. Moreover, in experiment [1], the ΔH is -382.6 kJ/mol, the ΔS is -1.33 kJ (mol x K) and the LE is 0.3 kcal/(mol·heavy atom).
Regarding `c1ccc(Cn2ccnc2)cc1` [Fragment 12, 1-Benzylimidazole], in experiment [2], the Z score amounted to 1.1 ± 0.2, the ΔTm at 1000 µM is 1.3 ± 0.9 °C and the “ΔTm (repurchased fragment)” value was -0.6 ± 0.4 °C. The Kd in experiment [1] (read-out: Kd) worked out at 11.8 ± 9.6 mM. Besides, in experiment [1], the ΔH is given as -64.4 kJ/mol, the ΔS was -0.25 kJ (mol x K) and the LE was 0.22 kcal/(mol·heavy atom).
On to `O=C1COc2cc(O)ccc21` [Fragment 8, 6-Hydroxy-2,3-dihydrobenzo[b] furan-3-one], for which, in experiment [2], the Z score is 1.5 ± 0.4, the shift in melting temperature (ΔTm) at 1000 µM was 1.7 ± 0.6 °C and the “ΔTm (repurchased fragment)” value is 0.4 ± 0.4 °C. In experiment [1] (read-out: Kd), the Kd turned out to be 5.9 ± 1.5 mM. Moreover, in experiment [1], the ΔH is listed as -292.7 kJ/mol, the ΔS is -1.02 kJ (mol x K) and the LE was 0.28 kcal/(mol·heavy atom).
Take `Oc1ccnc(O)c1` [Fragment 13, 2,4.Dihydroxy pyridine]: in experiment [2], the Z score came to 1.4 ± 0.2, the ΔTm at 1000 µM stood at 0.8 ± 0.1 °C and the “ΔTm (repurchased fragment)” value stood at 0.3 ± 0.1 °C. Also, the Kd entry in experiment [1] is reported as “No competition”.
Turning to `Oc1noc2ccc(F)cc12` [Fragment 19, 5-fluoro-3-hydroxybenzisoxazole], the Kd in experiment [1] (read-out: Kd) was 15.4 ± 10.2 mM. In addition, in experiment [1], the ΔH is recorded as -190.1 kJ/mol, the ΔS was -0.67 kJ (mol x K) and the LE was 0.22 kcal/(mol·heavy atom). For the same molecule, the “fold weaker binding affinity compared to 17” value in experiment [1] (competitive ITC Kd, versus 17) is listed as 6 fold.

As usually defined, the Kd is a measure of binding affinity in units of concentration. A word on the ΔTm: it is the change in melting temperature against a reference sample.
